According to US5683713A, “Pharmaceutical compositions for topical application” (priority 1993, dated 1997):
Like-named read-outs stand apart in the source and are kept apart here.

Assays:
[1] = prior art; cited from earlier work
[2] = not told; cited from earlier work
[3] = 6-carboxylfluorescein, rats; pretreatment of the skin with 4% calcium thioglycolate; cited from earlier work
[4] = across human skin; cited from earlier work
[5] = Skin irritation / tolerability; settings: thioglycolate esters and amides
[6] = In-vitro demonstration of the reaction: conversion of cystine into cysteine, followed by TLC; settings: after 6 hours; room temperature, water pH 7.2, under nitrogen
Experimental: A test was made to check whether the presence of a thioglycolate ester will cause conversion of Cystine into Cysteine: [drawing 1]
In a three necked flask (100 ml), under nitrogen were added 10 ml of water (pH 7.2), 200 mg cystine and 200 mg, of iso-octyl thioglycolate and stirred at room temperature for 24 hours. The reaction was followed by TLC using Silica-Gel precoated plates. As an eluant a mixture of BuOH:H2 O:AcOH in a 10:1:5 ratio respectively was used. The plates were developed by spraying a solution of 5% Ninhydrine in ethanol and heating. […] A control experiment was made under the same conditions but without the Thioglycolate ester. After 20 hours at room temperature no cysteine could be detected.

Compound: OCCS [2-Mercaptoethanol]
- irritation [1]: very strong irritants

Compound: C[S+](C)[O-] [Dimethyl sulfoxide]
- concentration needed for significant permeation enhancement [2]: > 70%

Compound: CC(C)=O [acetone]
- irritation [1]: cause irritation and edema

Compound: O=C(O)CS [calcium thioglycolate]
- increase of penetration as compared to the control [3]: 9 times

Compound: CCCCCCCCCC[S+](C)[O-] (stereo not shown) [decyl methyl, sulfoxide]
- penetration of sodium methotrexate [4]: enhances the penetration of sodium methotrexate across human skin
- toxicological problems [1]: creates toxicological problems

Compound: CCOC(=O)CS [ethyl thioglycolate]
- irritation [5]: irritants

Compound: CC(C)CCCCCOC(=O)CS [iso-octyl thioglycolate, Iso-octyl thioglycolate]
- conversion of cystine to cysteine (TLC spot) [6]: a spot corresponding to cysteine was formed and this spot grew as a function of time

Compound: COC(=O)CS [methyl thioglycolate]
- irritation [5]: irritants

Compound: tetralinhydrofurfuryl alcohol
- irritation [1]: cause irritation and edema
